Numbered stars: 1 amine (or outer) side, 2 acyl side, 3 side chain; on linkers, the order of the positions; unused ones are H or OH. Bridge positions count the residues as written; N and C are the ends. Square brackets hold non-standard residues; d marks the D form. Peptide text beside a SMILES is read from it. * marks the point of attachment. C20 diacid = O=C(O)CCCCCCCCCCCCCCCCCCC(=O)*; γGlu = O=C(O)[C@H](CCC(=O)[*:2])N[*:1]; Hyp = O=C(O)[C@@H]1C[C@@H](O)CN1; Cit = NC(=O)NCCC[C@H](N)C(=O)O

Consider six compounds from patent US12139520B2 (priority 2020, dated 2024).

The target in one test is T1, hAMY3 receptor (Homo sapiens, UniProt O60896+P30988).
T1 sequence (P30988 25-474): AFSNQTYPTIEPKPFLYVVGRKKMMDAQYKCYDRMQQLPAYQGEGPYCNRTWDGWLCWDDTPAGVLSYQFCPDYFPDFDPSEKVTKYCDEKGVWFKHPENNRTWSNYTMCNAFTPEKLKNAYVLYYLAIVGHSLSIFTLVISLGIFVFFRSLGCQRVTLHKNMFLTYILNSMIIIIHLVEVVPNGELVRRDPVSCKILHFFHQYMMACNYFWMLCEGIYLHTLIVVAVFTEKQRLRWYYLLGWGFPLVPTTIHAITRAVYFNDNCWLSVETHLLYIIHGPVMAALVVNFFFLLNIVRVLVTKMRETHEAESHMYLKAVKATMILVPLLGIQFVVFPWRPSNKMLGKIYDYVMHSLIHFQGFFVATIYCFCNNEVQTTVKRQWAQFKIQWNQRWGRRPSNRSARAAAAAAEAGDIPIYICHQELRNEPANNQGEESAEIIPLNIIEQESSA
T1 sequence (O60896 24-148 partner): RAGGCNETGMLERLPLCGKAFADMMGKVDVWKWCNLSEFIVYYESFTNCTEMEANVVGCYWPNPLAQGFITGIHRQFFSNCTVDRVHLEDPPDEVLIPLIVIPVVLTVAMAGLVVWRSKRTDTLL
The test can be described thus: cAMP assay for in vitro receptor activation, hAMY3-R. It is filed as cell-based. Particulars: cAMP assay, hAMY3 receptor; read-out: hAMY3R EC50. Put shortly:
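Stable hAMY3 cells; DPBS + 0.05% casein + 0.5 mM IBMX; graded compound doses, 30 min, RT; cAMP via HTRF Gs kit, TR-FRET read at 1 h.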

The target of the next test is hAM1 receptor (Homo sapiens, UniProt O60895+Q16602). Description: cAMP assay for in vitro receptor activation, hAM1-R. It is filed as cell-based. The note with it: cAMP assay, hAM1 receptor; read-out: hAM1R EC50. As for the experimental part:
General Protocols for cAMP Assays for Measuring In Vitro Receptor Activation
Cells stably overexpressing the hAM1 receptor were obtained from Ogeda (now Astellas Pharma), sub-cloned and a monoclonal cell-line with an appropriate assay-window was expanded, aliquoted and frozen. An aliquot was thawed and plated in DPBS with 0.05% casein and 0.5 mM IBMX as 8000 cells/well in a 384-well format.

hAM1 receptor, sequence (Q16602 23-461): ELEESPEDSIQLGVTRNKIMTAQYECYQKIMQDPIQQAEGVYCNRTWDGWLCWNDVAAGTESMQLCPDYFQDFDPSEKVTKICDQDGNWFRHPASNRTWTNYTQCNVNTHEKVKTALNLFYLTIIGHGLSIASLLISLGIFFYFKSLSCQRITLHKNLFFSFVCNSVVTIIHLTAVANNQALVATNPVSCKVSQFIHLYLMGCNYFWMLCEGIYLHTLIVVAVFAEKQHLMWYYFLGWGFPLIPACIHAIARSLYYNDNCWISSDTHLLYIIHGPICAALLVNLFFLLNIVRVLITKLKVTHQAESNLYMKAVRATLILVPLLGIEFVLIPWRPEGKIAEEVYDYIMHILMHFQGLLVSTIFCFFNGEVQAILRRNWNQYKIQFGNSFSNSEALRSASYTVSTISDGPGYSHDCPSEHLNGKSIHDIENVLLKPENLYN
hAM1 receptor, sequence (O60895 43-175 partner): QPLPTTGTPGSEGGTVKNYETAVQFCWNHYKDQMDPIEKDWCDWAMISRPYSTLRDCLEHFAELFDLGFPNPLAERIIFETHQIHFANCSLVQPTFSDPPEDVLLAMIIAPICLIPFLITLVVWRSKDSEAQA

Broadly, the EC50 is the concentration at which the effect is half-maximal. As for `CC[C@H](C)[C@H](NC(=O)[C@H](C)NC(=O)CNC(=O)[C@H](Cc1ccccc1)NC(=O)[C@H](CC(N)=O)NC(=O)[C@H](CC(N)=O)NC(=O)[C@H](CO)NC(=O)[C@H](CO)NC(=O)[C@H](Cc1c[nH]cn1)NC(=O)[C@@H](NC(=O)[C@H](CC(C)C)NC(=O)[C@H](Cc1ccccc1)NC(=O)[C@H](CC(N)=O)NC(=O)[C@H](C)NC(=O)[C@H](CC(C)C)NC(=O)[C@H](CCCNC(=N)N)NC(=O)[C@H](CCC(N)=O)NC(=O)[C@@H](NC(=O)[C@H](C)NC(=O)[C@@H]1CSSC[C@H](NC(=O)[C@@H](N)CCCCN)C(=O)N[C@@H](CC(N)=O)C(=O)N[C@@H]([C@@H](C)O)C(=O)N[C@@H](C)C(=O)N[C@@H]([C@@H](C)O)C(=O)N1)[C@@H](C)O)C(C)C)C(=O)N[C@@H](CC(C)C)C(=O)N1CCC[C@H]1C(=O)N[C@@H](CCCNC(=N)N)C(=O)N[C@H](C(=O)N[C@@H](CCCCN)C(=O)N[C@H](C(=O)NCC(=O)N[C@@H](CO)C(=O)N[C@@H](CC(N)=O)C(=O)NCC(=O)N[C@@H](Cc1ccc(O)cc1)C(N)=O)C(C)C)[C@@H](C)O` [compound 19] (H-KCNTATCATQRLANFLVHSSNNFGAILPRTKVGSNGY-NH2; disulfide 2-7), the figures for the concentration giving a half-maximal response (EC50) at hAMY3 receptor and on hAM1 receptor were 0.008 nM and above 5000 nM, respectively.

For the compound `CC[C@H](C)[C@H](NC(=O)[C@H](CCC(N)=O)NC(=O)[C@H](CC(N)=O)NC(=O)[C@H](C)NC(=O)[C@H](CC(C)C)NC(=O)[C@H](CCCNC(=N)N)NC(=O)[C@H](CCC(N)=O)NC(=O)[C@@H](NC(=O)[C@@H](NC(=O)[C@@H]1CSSC[C@H](NC(=O)[C@H](CCCCN)NC(=O)CC[C@H](NC(=O)CCCCCCCCCCCCCCCCCCC(=O)O)C(=O)O)C(=O)N[C@@H](CC(N)=O)C(=O)N[C@@H]([C@@H](C)O)C(=O)N[C@@H](C)C(=O)N[C@@H]([C@@H](C)O)C(=O)N1)[C@@H](C)O)C(C)C)C(=O)N[C@@H](Cc1ccc(O)cc1)C(=O)N[C@@H](CCC(N)=O)C(=O)N[C@@H](Cc1ccccc1)C(=O)N[C@H](C(=O)N[C@@H](CC(=O)O)C(=O)N[C@@H](CCCCN)C(=O)N[C@@H](CC(=O)O)C(=O)N[C@@H](CCCCN)C(=O)N[C@@H](CC(=O)O)C(=O)N[C@@H](CC(N)=O)C(=O)N[C@H](C(=O)N[C@@H](C)C(=O)N1CCC[C@H]1C(=O)N1CCC[C@H]1C(=O)N[C@H](C(=O)N[C@@H](CC(N)=O)C(=O)N[C@H](C(=O)NCC(=O)N[C@@H](CO)C(=O)N[C@@H](CC(N)=O)C(=O)NCC(=O)N1C[C@H](O)C[C@H]1C(N)=O)C(C)C)[C@@H](C)O)C(C)C)[C@@H](C)O` [compound 21] ({C20 diacid-γGlu}-KCNTATCTVQRLANQIYQFTDKDKDNVAPPTNVGSNG[Hyp]-NH2; disulfide 2-7), the results for the EC50 on hAMY3 receptor and at hAM1 receptor were 0.008 nM and above 5000 nM, respectively.

`CC[C@H](C)[C@H](NC(=O)[C@H](CCC(N)=O)NC(=O)[C@H](Cc1c[nH]cn1)NC(=O)[C@H](C)NC(=O)[C@H](CC(C)C)NC(=O)[C@H](CCCNC(=N)N)NC(=O)[C@H](CCC(N)=O)NC(=O)[C@@H](NC(=O)[C@@H](NC(=O)[C@@H]1CSSC[C@H](NC(=O)[C@H](CCCCN)NC(=O)CC[C@H](NC(=O)CCCCCCCCCCCCCCCCCCC(=O)O)C(=O)O)C(=O)N[C@@H](CC(N)=O)C(=O)N[C@@H]([C@@H](C)O)C(=O)N[C@@H](C)C(=O)N[C@@H]([C@@H](C)O)C(=O)N1)[C@@H](C)O)C(C)C)C(=O)N[C@H](C(=O)N[C@@H](CCC(N)=O)C(=O)N[C@@H](Cc1ccccc1)C(=O)N[C@H](C(=O)N[C@@H](CC(=O)O)C(=O)N[C@@H](CCCCN)C(=O)N[C@@H](CC(=O)O)C(=O)N[C@@H](CCCCN)C(=O)N[C@@H](CC(=O)O)C(=O)N[C@@H](CC(N)=O)C(=O)N[C@H](C(=O)N[C@@H](C)C(=O)N1CCC[C@H]1C(=O)N1CCC[C@H]1C(=O)N[C@H](C(=O)N[C@@H](CC(N)=O)C(=O)N[C@H](C(=O)NCC(=O)N[C@@H](CO)C(=O)N[C@@H](CC(N)=O)C(=O)NCC(=O)N1C[C@H](O)C[C@H]1C(N)=O)C(C)C)[C@@H](C)O)C(C)C)[C@@H](C)O)[C@@H](C)O` [compound 22] ({C20 diacid-γGlu}-KCNTATCTVQRLAHQITQFTDKDKDNVAPPTNVGSNG[Hyp]-NH2; disulfide 2-7): the concentration giving a half-maximal response (EC50) at hAMY3 receptor is 0.008 nM; at hAM1 receptor, above 5000 nM.

Turning to `CC[C@H](C)[C@H](NC(=O)[C@H](CCC(N)=O)NC(=O)[C@H](Cc1c[nH]cn1)NC(=O)[C@H](C)NC(=O)[C@H](CC(C)C)NC(=O)[C@H](CCCNC(=N)N)NC(=O)[C@H](CCC(N)=O)NC(=O)[C@@H](NC(=O)[C@@H](NC(=O)[C@@H]1CSSC[C@H](NC(=O)[C@@H](N)CCCCN)C(=O)N[C@@H](CC(N)=O)C(=O)N[C@@H]([C@@H](C)O)C(=O)N[C@@H](C)C(=O)N[C@@H]([C@@H](C)O)C(=O)N1)[C@@H](C)O)C(C)C)C(=O)N[C@@H](Cc1ccc(O)cc1)C(=O)N[C@@H](CCC(N)=O)C(=O)N[C@@H](Cc1ccccc1)C(=O)N[C@H](C(=O)N[C@@H](CC(=O)O)C(=O)N[C@@H](CCCCN)C(=O)N[C@@H](CC(=O)O)C(=O)N[C@@H](CCCCN)C(=O)N[C@@H](CC(=O)O)C(=O)N[C@@H](CC(N)=O)C(=O)N[C@H](C(=O)N1CCC[C@H]1C(=O)N1CCC[C@H]1C(=O)N[C@H](C(=O)N[C@@H](CC(N)=O)C(=O)N[C@H](C(=O)NCC(=O)N[C@@H](CO)C(=O)N[C@@H](CC(N)=O)C(=O)NCC(=O)N1C[C@H](O)C[C@H]1C(N)=O)C(C)C)[C@@H](C)O)C(C)C)[C@@H](C)O` [compound 30] (H-KCNTATCTVQRLAHQIYQFTDKDKDNVPPTNVGSNG[Hyp]-NH2; disulfide 2-7; N-terminus assumed), the EC50 at hAMY3 receptor is 0.008 nM; at hAM1 receptor, above 5000 nM.

`CC[C@H](C)[C@H](NC(=O)[C@H](CCC(N)=O)NC(=O)[C@H](Cc1c[nH]cn1)NC(=O)[C@H](C)NC(=O)[C@H](CC(C)C)NC(=O)[C@H](CCCNC(=N)N)NC(=O)[C@H](CCC(N)=O)NC(=O)[C@@H](NC(=O)[C@@H](NC(=O)[C@@H]1CSSC[C@H](NC(=O)[C@@H](N)CCCCN)C(=O)N[C@@H](CC(N)=O)C(=O)N[C@@H]([C@@H](C)O)C(=O)N[C@@H](C)C(=O)N[C@@H]([C@@H](C)O)C(=O)N1)[C@@H](C)O)C(C)C)C(=O)N[C@@H](Cc1ccc(O)cc1)C(=O)N[C@@H](CCC(N)=O)C(=O)N[C@@H](Cc1ccccc1)C(=O)N[C@H](C(=O)N[C@@H](CC(=O)O)C(=O)N[C@@H](CCCCN)C(=O)N[C@@H](CC(=O)O)C(=O)N[C@@H](CCCCN)C(=O)N[C@@H](CC(=O)O)C(=O)N[C@@H](CC(N)=O)C(=O)N[C@H](C(=O)N[C@@H](C)C(=O)N1CCC[C@H]1C(=O)N[C@H](C(=O)N[C@@H](CC(N)=O)C(=O)N[C@H](C(=O)NCC(=O)N[C@@H](CO)C(=O)N[C@@H](CC(N)=O)C(=O)NCC(=O)N1C[C@H](O)C[C@H]1C(N)=O)C(C)C)[C@@H](C)O)C(C)C)[C@@H](C)O` [compound 31] (H-KCNTATCTVQRLAHQIYQFTDKDKDNVAPTNVGSNG[Hyp]-NH2; disulfide 2-7; N-terminus assumed): the EC50 is 0.008 nM at hAMY3 receptor and above 5000 nM at hAM1 receptor.

Regarding `CC[C@H](C)[C@H](NC(=O)[C@H](CCC(N)=O)NC(=O)[C@H](CCC(=O)O)NC(=O)[C@H](C)NC(=O)[C@H](CC(C)C)NC(=O)[C@H](CCCNC(N)=O)NC(=O)[C@H](C)NC(=O)[C@@H](NC(=O)[C@@H](NC(=O)[C@@H]1CSSC[C@H](NC(=O)[C@@H](N)CCCNC(=N)N)C(=O)N[C@@H](CCC(N)=O)C(=O)N[C@@H](C)C(=O)N[C@@H](CO)C(=O)N[C@@H]([C@@H](C)O)C(=O)N1)[C@@H](C)O)C(C)C)C(=O)N[C@@H](C)C(=O)N[C@@H](CCC(N)=O)C(=O)N[C@@H](Cc1ccc(O)cc1)C(=O)N[C@H](C(=O)N[C@@H](CC(=O)O)C(=O)N[C@@H](CCCCN)C(=O)N[C@@H](CC(=O)O)C(=O)N[C@@H](CCCCN)C(=O)N[C@@H](CC(=O)O)C(=O)N[C@@H](CCC(N)=O)C(=O)N[C@H](C(=O)N[C@@H](C)C(=O)N1CCC[C@H]1C(=O)N1CCC[C@H]1C(=O)N[C@H](C(=O)N[C@@H](CCC(=O)O)C(=O)N[C@H](C(=O)NCC(=O)N1CCC[C@H]1C(=O)N[C@@H](CC(N)=O)C(=O)N[C@@H](CO)C(=O)N1C[C@H](O)C[C@H]1C(N)=O)C(C)C)[C@@H](C)O)C(C)C)[C@@H](C)O` [compound 33] (H-RCQASTCTVA[Cit]LAEQIAQYTDKDKDQVAPPTEVGPNS[Hyp]-NH2; disulfide 2-7; N-terminus assumed), the EC50 was 0.008 nM on hAMY3 receptor and above 5000 nM at hAM1 receptor.
